This experiment concerns fertilized eggs of the C57BL/6J lineage. The experiment is described as follows: In vitro culture of natural mating-derived fertilized eggs in M16 medium supplemented with ALA; embryo development. The experiment is classed as cell-based, mouse. Particulars: 37° C. The text has this:
The female mice used to harvest fertilized eggs were female mice of the C57BL/6J lineage (21 weeks old to 27 weeks old, body weight: 21.0 to 24.5 g). The male mice used for mating were male mice of the C57BL/6J lineage (32 to 38 weeks old, body weight: 30.0 to 35.5 g). According to a routine method of controlled ovarian hyperstimulation, 5 U (units) of equine chorionic gonadotropin (serum gonadotrophin) (manufactured by ASKA Pharmaceutical Co., Ltd.) were intraperitoneally administered to each female mouse. 45 to 48 hours later, 5 U (units) of gonadotropin (human chorionic gonadotropin) (manufactured by ASKA Pharmaceutical Co., Ltd.) were intraperitoneally administered to each female mouse. Immediately after the administration of gonadotropin, each female mouse was mated with each male mouse described above.
On the next day, the presence or absence of a milky resin-like vaginal plug was determined for the mated female mice, and the oviducts were harvested from the female mice confirmed to have the vaginal plug. The harvested oviducts were left standing in physiological saline (0.9% (w/v) NaCl) for approximately 15 minutes and then transferred into M16 medium supplemented with approximately 300 μg/mL of hyaluronidase (manufactured by Sigma-Aldrich Corp.) for cumulus cell removal treatment. The oviducts were incised, and fertilized eggs were isolated and left standing at 37° C. for 5 to 10 minutes in a CO2 incubator. Then, the fertilized eggs separated from the cumulus cells were recovered and washed with hyaluronidase-unsupplemented M16 medium to remove hyaluronidase. The resulting cumulus cell-free fertilized eggs were left standing at 37° C. in a CO2 incubator.
Aside therefrom, a drop of 100 μL of M16 medium covered with mineral oil (manufactured by Sigma-Aldrich Corp.) and supplemented with ALA hydrochloride (manufactured by SBI Pharmaceuticals Co., Ltd.) at a final concentration of 0 μM (control), 0.1 μM, 0.5 μM, or 1 μM was prepared in a 35 mm Petri dish and left standing at 37° C. in a CO2 incubator. 29 or 30 of the cumulus cell-free fertilized eggs were transferred to the resulting drop and cultured in vitro at 37° C. in a CO2 incubator.
After a lapse of 24 hours, 48 hours, 72 hours, and 96 hours from the start of the in vitro culture (0 hours) in the drop, the developmental stage of each embryo was determined by observation under a stereoscopic microscope, and the number of embryos whose development progressed normally and change in development rate were calculated. Specifically, the number of 2-cell eggs 24 hours after the start of the culture, the number of 3-cell, 4-cell, and 8-cell eggs 48 hours thereafter, the number of morulae and blastocysts 72 hours thereafter, and the number of blastocysts 96 hours thereafter were counted as embryos whose development progressed normally at each stage. The development rate with the number of fertilized eggs (0 hours) defined as 100% is shown in Table 3 and the graph of FIG. 1. For the evaluation of the development rate, the percentage of the number of embryos whose development progressed normally 24 hours, 48 hours, 72 hours, and 96 hours after the start of the culture was calculated with the number of fertilized eggs (0 hours) defined as 100%, and used as a normal development rate. Because of the natural mating, the number of recovered fertilized eggs (0 hours) includes unfertilized eggs to some extent, and there is the possibility that the content of unfertilized eggs varies accidentally among fertilized eggs (0 hours) populations distributed to the respective condition groups even if the fertilized eggs (0 hours) populations have been recovered in the same experiment. The development rate calculated with the number of 2-cell embryos 24 hours postfertilization defined as 100% was calculated in order to eliminate the influence of the content of unfertilized eggs that varies accidentally among the respective condition groups. […]

As for `NCC(=O)CCC(=O)O` [ALA, 5-aminolevulinic acid], the “The number of developed embryos” value by setting is: (0.1 μM ALA, 24 hr) 22; (0.1 μM ALA, 48 hr) 19; (0.1 μM ALA, 72 hr) 14; (0.1 μM ALA, 96 hr) 7; (0.5 μM ALA, 24 hr) 24; (0.5 μM ALA, 48 hr) 21. For the same molecule, the “The number of developed embryos” value by setting is: (0.5 μM ALA, 72 hr) 14; (0.5 μM ALA, 96 hr) 13; (1 μM ALA, 24 hr) 19; (1 μM ALA, 48 hr) 19; (1 μM ALA, 72 hr) 15; (1 μM ALA, 96 hr) 13. Also, the “development rate with the number of fertilized eggs (0 hr) defined as 100%” value is, setting by setting: (0.1 μM ALA, 24 hr) 73%; (0.1 μM ALA, 48 hr) 63%; (0.5 μM ALA, 24 hr) 83%; (0.5 μM ALA, 48 hr) 72%; (1 μM ALA, 24 hr) 66%; (1 μM ALA, 48 hr) 66%. In addition, the “development rate with the number of 2-cell embryos 24 hours postfertilization defined as 100%” value is, setting by setting: (0.1 μM ALA, 48 hr) 86%; (0.1 μM ALA, 72 hr) 64%; (0.5 μM ALA, 48 hr) 88%; (0.5 μM ALA, 72 hr) 58%; (1 μM ALA, 48 hr) 100%.
